{"source": "patent US20070203228A1", "about": "“Method for treating chronic obstructive pulmonary disease” (SUCAMPO AG, priority 2006, published 2007)", "key": {"[1]": {"test_system": "cigarette smoke-exposed guinea pigs", "assay": "Specific airway resistance (sRaw) in cigarette smoke-exposed guinea pigs", "format": "in vivo, guinea pig", "details": "for Specific airway resistance (sRaw) Mean ± S.D.: 30 min from 1 hr before smoke exposure, Days 1 to 25, measured Day 26, n=7, control 2.154 ± 0.365, sham 1.131 ± 0.149", "text": "(§1) Guinea pigs were exposed to cigarette smoke using a smoking system (INH06-CIG01A, M.I.P.S. Inc.). Each animal was placed in an exposure holder, and the holder was fixed in an exposure chamber. Cigarette smoke of 30 cigarettes per day (Peace®, Japan Tobacco Inc.) was drawn from a smoke generator into the exposure chamber, 5 days per week, for 25 days (Days 1 to 25). In a sham exposure group, the atmospheric air, instead of cigarette smoke, was drawn into the exposure chamber.\n(§2) Aqueous solution of Compound A (13,14-dihydro-15-keto-16,16-difluoro-18(S)-methyl-PGE1) was vaporized using a pressurized nebulizer (LC Plus Nebulizer, Pari GmbH) and inhaled by the animals in a chamber of an inhalation system (SIS-A, Sibata Scientific Technology Ltd.) for 30 minutes from 1 hr before the cigarette smoke exposure.\nSpecific airway resistance (sRaw) of conscious animals was measured by a double flow plethysmo-graph technique with a respiratory function measurement system (Pulmos-1, M.I.P.S Inc.) on Day 26."}, "[2]": {"test_system": "cigarette smoke-exposed guinea pigs", "assay": "Pulmonary function (RV, FEV100) in cigarette smoke-exposed guinea pigs", "format": "in vivo, guinea pig", "text": "as §1, §2\nAfter the sRaw measurements, animals were anesthetized with ketamine (60 mg/kg) and xylazine (8 mg/kg), and the trachea was cannulated. Pulmonary function was measured using a pulmonary function measurement system (Biosystem Manoeuvers, Buxco Electronics, Inc.). The parameters of measurement consisted of residual volume (RV) and forced expiratory volume at 100 msec (FEV100)."}, "[3]": {"test_system": "cigarette smoke-exposed guinea pigs", "assay": "Macrophage (monocyte) count in bronchoalveolar lavage fluid of cigarette smoke-exposed guinea pigs", "format": "in vivo, guinea pig", "text": "as §1, §2\nAfter the measurement of pulmonary function, the animals were sacrificed by exsanguination under anesthesia and the thorax was opened. Five milliliters of saline were instilled into the lungs through a tracheal cannula, and the lavage fluid was recovered by gentle aspiration. This procedure was repeated and the recovered lavage fluid was combined (10 mL in total, bronchoalveolar lavage fluid, BALF). The number of macrophages (monocyte) in the BALF was counted."}, "[4]": {"test_system": "Human lung alveolar type II cells (A549)", "assay": "Cytochrome c translocation after cigarette smoke extract (CSE) treatment, cytochrome c ELISA", "format": "cell-based", "protocol": "Smoke from 8 cigarettes was drawn slowly through 100 ml of serum free culture medium and the resulting suspension was filtered through 0.20 μm filter. The solution was considered as 100% cigarette smoke extract (CSE). Human lung alveolar type II cells (A549) were grown in 96 well plates for 48 hrs at a final concentration of 1.5×10^5 cells per well. The cells were then treated separately with either 100 nM Compound A or 1%, 2.5% and 5% CSE. In other sets, 100 nM Compound A was added along with 1%, 2.5% or 5% CSE. All incubations were done at 37° C. for 24 hrs. After 24 hr treatment, the cells were washed with 0-4° C. PBS three times. Measurement of cytochrome c that was translocated into the cytosol, a marker of cellular injury, was performed according to the instructions provided with a kit for cytochrome c ELISA assay."}, "[5]": {"details": "compared with the control group"}}, "note": "Entries after “also recorded” stand apart in the source; their conditions may differ. Marks after values point to notes of the source that are not given here.", "data": [{"smiles": "CC[C@H](C)CC(F)(F)C(=O)CC[C@H]1[C@H](O)CC(=O)[C@@H]1CCCCCCC(=O)O", "note": "[Compound A, 13,14-dihydro-15-keto-16,16-difluoro-18(S)-methyl-PGE1]", "values": [{"measurement": "Effect on increase in sRaw induced by cigarette smoke exposure", "setting": "[1]; [5]", "result": "significantly inhibited the increase in sRaw"}, {"measurement": "Specific airway resistance (sRaw) Mean ± S.D.", "setting": "[1]; inhaled aqueous solution 1 μg/mL", "result": "1.417 ± 0.226", "unit": "cmH2O · sec"}, {"measurement": "Specific airway resistance (sRaw) Mean ± S.D.", "setting": "[1]; inhaled aqueous solution 10 μg/mL", "result": "1.383 ± 0.241", "unit": "cmH2O · sec"}, {"measurement": "Effect on decrease in FEV100 induced by cigarette smoke exposure", "setting": "[2]; [5]", "result": "significantly inhibited these changes"}, {"measurement": "Effect on increase in residual volume (RV) induced by cigarette smoke exposure", "setting": "[2]; [5]", "result": "significantly inhibited these changes"}, {"measurement": "RV (residual volume) Mean ± S.D.", "setting": "[2]; inhaled aqueous solution 1 μg/mL, n=7, control 5.44 ± 1.43, sham 2.75 ± 1.45", "result": "3.45 ± 1.07", "unit": "mL"}, {"measurement": "FEV100 (forced expiratory volume at 100 msec) Mean ± S.D.", "setting": "[2]; inhaled aqueous solution 1 μg/mL, n=7, control 5.75 ± 3.29, sham 9.87 ± 1.17", "result": "10.38 ± 1.08", "unit": "mL"}, {"measurement": "Effect on increase in number of macrophages (monocyte) in BALF induced by cigarette smoke exposure", "setting": "[3]; [5]", "result": "significantly inhibited the increase in number of macrophages (monocyte)"}, {"measurement": "Monocyte/Macrophage count in bronchoalveolar lavage fluid Mean ± S.D.", "setting": "[3]; inhaled aqueous solution 1 μg/mL, n=7, control 14.42 ± 3.00, sham 4.52 ± 1.73", "result": "10.35 ± 2.53* 10^2 cells/μL"}, {"measurement": "Cytosolic cytochrome c, compound alone", "setting": "[4]; 100 nM Compound A alone, no CSE, 24 hours", "result": "Neither 0.1% DMSO (B) (vehicle for Compound A) nor Compound A (C) alone significantly affected cytosolic cytochrome c"}, {"measurement": "Cytochrome c translocation induced by CSE", "setting": "[4]; 100 nM Compound A with 1%, 2.5% and 5% CSE, 24 hrs, compared to DMSO control (P<0.05, P<002 and P<0.005)", "result": "protected against the cytochrome c translocation induced by CSE; also recorded: significantly decreased cytochrome c translocation"}]}]}
